Experiments:
[1] = described in literature (Schmidt et al. 1984); cited from earlier work
[2] = Test B: In-Vitro Competitive Aortic Tissue Binding Assay; parameters: species or system Han Wistar rats; settings: 100 μM compound, competition with [14C]-labelled WO2010/128324 Ex. 3 in rat aortic homogenate; four categories
Description: To assist the design of DPP1 inhibitors with a decreased risk of binding to elastin rich tissues, such as the aorta, the in-vitro competitive aortic binding assay disclosed below (Test B) was developed to facilitate the selection process.
Test B: In-Vitro Competitive Aortic Tissue Binding Assay
Aortic homogenate was prepared from the thoracic aortae of Han Wistar rats. Freshly isolated to thoracic aortae were frozen, and later thawed and stripped of non-elastic material. […] Homogenate concentration was adjusted to 30 mg/mL in Puck's saline, and aliquots were stored at −80° C. until use. Positive and negative control compounds and test compounds were made up to 100 mM in DMSO, and added to 1 mL aliquots of aortic homogenate in Puck's saline for a final concentration of 100 μM. Homogenate samples were pre-incubated with test compounds at 37° C., rotating, overnight. [^14C]4-Amino-N-[(1S)-1-cyano-2-(4′-cyanobiphenyl-4-yl)ethyl]tetrahydro-2H-pyran-4-carboxamide was then added to all samples to a final concentration of 100 μM, and samples were incubated at 37° C., rotating, for a further 2 h. Protein was precipitated from each sample by the addition of 10 mL acetone, pre-chilled to −20° C. Samples were left overnight at −20° C. to allow complete precipitation. Precipitate was pelleted by centrifugation at 4,500×g at 4° C. for 20 min, an aliquot of supernatant was removed for analysis, and the remainder of the supernatant discarded. Precipitate was washed by resuspension in 10 mL 80% methanol in distilled water, and re-pelleted by centrifugation at 4,500×g at 4° C. for 20 min. […] After final wash, precipitate was air-dried, and dissolved overnight in 1 mL NCSII Tissue Solubiliser. 1 mL aliquots of supernatants were added to 5 mL Ultima Gold scintillation fluid (Perkin Elmer, Mass., U.S.A.), and 1 mL solubilised pellets were added to 5 mL Hionic-Fluor scintillation fluid (Perkin Elmer, Mass., U.S.A.). Radioactivity of samples was determined on a Beckman LS6500 multipurpose scintillation counter (Beckman Coulter, Ind., U.S.A.). […] Duplicate samples were tested for each compound on each experimental occasion, and at least two experiments were run for each test compound. […] 1-way ANOVA and Bonferroni's multiple comparison tests were performed to calculate significance of differences from vehicle control.

[3] = target: Recombinant Human (RH) DPP1 (Homo sapiens (Human), UniProt P53634); test: Test A1: Fluorescence Assay for Recombinant Human (RH) DPP1; assay type: biochemical; settings: Test A1, rhDPP1, H-Gly-Arg-AMC substrate (Examples 1-35)
Recombinant Human (RH) DPP1, sequence (P53634 231-394): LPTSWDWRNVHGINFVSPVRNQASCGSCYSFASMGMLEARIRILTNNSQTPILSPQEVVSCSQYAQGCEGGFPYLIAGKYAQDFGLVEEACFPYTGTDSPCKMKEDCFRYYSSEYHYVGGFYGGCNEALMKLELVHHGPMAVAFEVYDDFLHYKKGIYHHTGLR
Recombinant Human (RH) DPP1, sequence (P53634 25-143): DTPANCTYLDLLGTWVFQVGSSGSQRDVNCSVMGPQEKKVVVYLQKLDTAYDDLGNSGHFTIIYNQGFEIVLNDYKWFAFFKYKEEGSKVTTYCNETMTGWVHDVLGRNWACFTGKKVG
Recombinant Human (RH) DPP1, sequence (P53634 395-463): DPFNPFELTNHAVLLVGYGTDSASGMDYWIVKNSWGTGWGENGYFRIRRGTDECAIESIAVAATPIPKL
Description: Test A1: Fluorescence Assay for Recombinant Human (RH) DPP1
The activity of DPP1 was determined by measuring the enzymatic release of aminomethyl coumarin (AMC) from the peptide substrate (H-Gly-Arg-AMC), which leads to an increase in fluorescence intensity at λex=350 nm and λem=450 nm. The assay was carried out in black 384 well plates in a final volume of 50 μl at 22° C. The assay conditions contained the following: 25 mM piperazine buffer pH 5.0; 50 mM NaCl, 5 mM DTT; 0.01% (v/v) Triton X-100; 100 μM H-Gly-Arg-AMC and rhDPP1 (˜50 pM). […] Routinely, inhibitors were pre-incubated with rhDPP1 for 30-60 min prior to the addition of the peptide substrate to start the reaction for a further 60 min at 22° C.

[4] = rat quantitative whole-body autoradiography (QWBA) studies; assay type: in vivo

| Structure (SMILES) | Aortic Tissue Binding [2] | other results |
| --- | --- | --- |
| CC(c1ccc(Cl)c(Cl)c1)N1N=C(N)CC1=O (stereo not drawn) [muzolimine] | – | retention in the aorta in QWBA [1]: retained selectively in the aorta |
| CS(=O)(=O)c1ccc(-c2ccc(C[C@@H](C#N)NC(=O)[C@@H]3CNCCCO3)cc2)cc1 [Example 30, (2S)-N-{(1S)-1-Cyano-2-[4′-(methylsulfonyl)biphenyl-4-yl]ethyl}-1,4-oxazepane-2-carboxamide] | – | DPP1 activity, pIC50 [3]: 7.43 |
| Cn1c(=O)oc2ccc(-c3ccc(C[C@@H](C#N)NC(=O)[C@@H]4CNCCCO4)cc3)cc21 [Example 2, (2S)—N-{(1S)-1-Cyano-2-[4-(3-methyl-2-oxo-2,3-dihydro-1,3-benzoxazol-5-yl)phenyl]ethyl}-1,4-oxazepane-2-carboxamide] | No binder | – |
| N#C[C@H](Cc1ccc(-c2ccc(C(N)=O)c(F)c2)cc1)NC(=O)[C@@H]1CNCCCO1 [Example 23, (2S)-N-[(1S)-2-(4′-Carbamoyl-3′-fluorobiphenyl-4-yl)-1-cyanoethyl]-1,4-oxazepane-2-carboxamide] | – | DPP1 activity, pIC50 [3]: 7.17 |

Further lines, with some results ahead:

| Aortic Tissue Binding [2] | Structure (SMILES) | other results |
| --- | --- | --- |
| Strong binder | Cn1c(=O)oc2ccc(-c3ccc(C[C@@H](C#N)NC(=O)C4(N)CCOCC4)cc3)cc21 [WO2010/128324 (Example 17)] | – |
| Medium binder | Cn1c(=O)oc2ccc(-c3ccc(C[C@@H](C#N)NC(=O)[C@@H]4CCCCN4)cc3)cc21 [WO2009/074829 (Example 96)] | – |
| Strong binder (reference) | N#Cc1ccc(-c2ccc(C[C@@H](C#N)NC(=O)C3(N)CCOCC3)cc2)cc1 [WO2010/128324 (Ex. 3), 4-amino-N-[(1S)-1-cyano-2-(4′-cyanobiphenyl-4-yl)ethyl]tetrahydro-2H-pyran-4-carboxamide] | aortic retention in QWBA [4]: high level of aortic retention |
| Binder | N#Cc1ccc(-c2ccc(C[C@@H](C#N)NC(=O)[C@@H]3CCCCN3)cc2)cc1 [WO2009/074829 (Example 24)] | – |

From patent publication US10669245B2, “Certain (2S)-N-[(1S)-1-cyano-2-phenylethyl]-1,4-oxazepane-2-carboxamides dipeptidyl peptidase 1 inhibitors” (AstraZeneca AB, priority 2014, dated 2020)
